Columns and labels:
Experiment in all cases: relative viability (nuclei count vs DMSO), 5 days (fraction); higher = more cells survive
LU99A = tested on: LU99A
Method in brief: (§1)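 Dosing by pin tool came one day after lung cancer cell lines were seeded in 1536-well plates, using either one drug or a fixed anchor-drug dose plus five library-drug doses (not always all listed) in √10 steps. After 5 days, nuclei were counted on 4× images. Relative viability is treated-well nuclei count divided by vehicle-well nuclei count, and values are medians of duplicate plates.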

CAL-12T = tested on: CAL-12T
Method in brief: as §1

HCC-366 = tested on: HCC-366
Method in brief: as §1

ABC-1 = tested on: ABC-1
Method in brief: as §1

NCI-H2405 = tested on: NCI-H2405
Method in brief: as §1

HCC-78 = tested on: HCC-78
Method in brief: as §1

EPLC-272H = tested on: EPLC-272H
Method in brief: as §1

ChaGo-K-1 = tested on: ChaGo-K-1
Method in brief: as §1

NCI-H1944 = tested on: NCI-H1944
Method in brief: as §1

LC-2-ad = tested on: LC-2-ad
Method in brief: as §1

PC-3 [JPC-3] = tested on: PC-3 [JPC-3]
Method in brief: as §1

NCI-H2087 = tested on: NCI-H2087
Method in brief: as §1

NCI-H1793 = tested on: NCI-H1793
Method in brief: as §1

NCI-H1734 = tested on: NCI-H1734
Method in brief: as §1

RERF-LC-KJ = tested on: RERF-LC-KJ
Method in brief: as §1

NCI-H3122 = tested on: NCI-H3122
Method in brief: as §1

LOU-NH91 = tested on: LOU-NH91
Method in brief: as §1

UMC-11 = tested on: UMC-11
Method in brief: as §1

NCI-H460 = tested on: NCI-H460
Method in brief: as §1

NCI-H1395 = tested on: NCI-H1395
Method in brief: as §1

NCI-H1755 = tested on: NCI-H1755
Method in brief: as §1

NCI-H2170 = tested on: NCI-H2170
Method in brief: as §1

NCI-H2228 = tested on: NCI-H2228
Method in brief: as §1

NCI-H1651 = tested on: NCI-H1651
Method in brief: as §1

C[C@@H]1CN(CC(=O)Nc2ccc3c(c2)Cc2cccc(-c4cc(=O)cc(N5CCOCC5)o4)c2S3)C[C@H](C)O1 + O=C(c1cc(Cc2n[nH]c(=O)c3ccccc23)ccc1F)N1CCN(C(=O)C2CC2)CC1 [Olaparib] (partner 8 µM) was tested. Which relative viability (LU99A; first compound 0.04 µM) did it give?
The relative viability was 0.316.

What about the relative viability (LU99A; first compound 0.1265 µM) of the same compound?
The relative viability was 0.282.

What about the relative viability (LU99A; first compound 0.4 µM) of the same compound?
Its relative viability is 0.259.

What about the relative viability (LU99A; first compound 4 µM) of the same compound?
The relative viability was 0.246.

And the relative viability (CAL-12T; first compound 0.04 µM)?
The relative viability was 0.81.

And the relative viability (CAL-12T; first compound 0.1265 µM)?
Its relative viability is 0.739.

What about the relative viability (CAL-12T; first compound 0.4 µM) of the same compound?
The relative viability was 0.656.

And the relative viability (CAL-12T; first compound 4 µM)?
Its relative viability is 0.168.

And the relative viability (HCC-366; first compound 0.04 µM)?
Its relative viability is 0.43.

And the relative viability (HCC-366; first compound 0.1265 µM)?
The relative viability was 0.489.

What about the relative viability (HCC-366; first compound 0.4 µM) of the same compound?
Its relative viability is 0.44.

And the relative viability (HCC-366; first compound 4 µM)?
Its relative viability is 0.055.

What about the relative viability (ABC-1; first compound 0.04 µM) of the same compound?
Its relative viability is 0.729.

And the relative viability (ABC-1; first compound 0.1265 µM)?
The relative viability was 1.22.

And the relative viability (ABC-1; first compound 0.4 µM)?
The relative viability was 0.804.

And the relative viability (ABC-1; first compound 4 µM)?
Its relative viability is 1.08.

What about the relative viability (NCI-H2405; first compound 0.04 µM) of the same compound?
The relative viability was 0.938.

And the relative viability (NCI-H2405; first compound 0.1265 µM)?
The relative viability was 0.93.

What about the relative viability (NCI-H2405; first compound 0.4 µM) of the same compound?
Its relative viability is 0.837.

What about the relative viability (NCI-H2405; first compound 4 µM) of the same compound?
Its relative viability is 0.578.

And the relative viability (HCC-78; first compound 0.04 µM)?
Its relative viability is 0.735.

What about the relative viability (HCC-78; first compound 0.1265 µM) of the same compound?
Its relative viability is 0.807.

What about the relative viability (HCC-78; first compound 0.4 µM) of the same compound?
Its relative viability is 0.925.

And the relative viability (HCC-78; first compound 4 µM)?
Its relative viability is 0.595.

And the relative viability (EPLC-272H; first compound 0.04 µM)?
The relative viability was 0.956.

And the relative viability (EPLC-272H; first compound 0.1265 µM)?
Its relative viability is 0.81.

And the relative viability (EPLC-272H; first compound 0.4 µM)?
The relative viability was 0.647.

What about the relative viability (EPLC-272H; first compound 4 µM) of the same compound?
The relative viability was 0.317.

What about the relative viability (ChaGo-K-1; first compound 0.04 µM) of the same compound?
The relative viability was 0.461.

And the relative viability (ChaGo-K-1; first compound 0.1265 µM)?
Its relative viability is 0.428.

What about the relative viability (ChaGo-K-1; first compound 0.4 µM) of the same compound?
The relative viability was 0.404.

What about the relative viability (ChaGo-K-1; first compound 4 µM) of the same compound?
The relative viability was 0.389.

What about the relative viability (NCI-H1944; first compound 0.1265 µM) of the same compound?
The relative viability was 0.371.

And the relative viability (NCI-H1944; first compound 0.4 µM)?
Its relative viability is 0.386.

What about the relative viability (NCI-H1944; first compound 4 µM) of the same compound?
Its relative viability is 0.321.

And the relative viability (LC-2-ad; first compound 0.04 µM)?
Its relative viability is 0.657.

What about the relative viability (LC-2-ad; first compound 0.1265 µM) of the same compound?
Its relative viability is 0.653.

And the relative viability (LC-2-ad; first compound 0.4 µM)?
The relative viability was 0.689.

What about the relative viability (LC-2-ad; first compound 4 µM) of the same compound?
The relative viability was 0.433.

And the relative viability (PC-3 [JPC-3]; first compound 0.04 µM)?
The relative viability was 1.17.

What about the relative viability (PC-3 [JPC-3]; first compound 0.1265 µM) of the same compound?
The relative viability was 1.08.

What about the relative viability (PC-3 [JPC-3]; first compound 0.4 µM) of the same compound?
Its relative viability is 1.16.

What about the relative viability (PC-3 [JPC-3]; first compound 4 µM) of the same compound?
The relative viability was 0.608.

What about the relative viability (NCI-H2087; first compound 0.04 µM) of the same compound?
Its relative viability is 0.649.

What about the relative viability (NCI-H2087; first compound 0.1265 µM) of the same compound?
Its relative viability is 0.546.

And the relative viability (NCI-H2087; first compound 0.4 µM)?
Its relative viability is 0.602.

What about the relative viability (NCI-H2087; first compound 4 µM) of the same compound?
Its relative viability is 0.214.

And the relative viability (NCI-H1793; first compound 0.04 µM)?
Its relative viability is 1.01.

What about the relative viability (NCI-H1793; first compound 0.1265 µM) of the same compound?
Its relative viability is 0.784.

What about the relative viability (NCI-H1793; first compound 0.4 µM) of the same compound?
Its relative viability is 0.86.

What about the relative viability (NCI-H1793; first compound 4 µM) of the same compound?
Its relative viability is 0.255.

And the relative viability (NCI-H1734; first compound 0.04 µM)?
Its relative viability is 0.73.

And the relative viability (NCI-H1734; first compound 0.1265 µM)?
The relative viability was 0.573.

What about the relative viability (NCI-H1734; first compound 0.4 µM) of the same compound?
The relative viability was 0.613.

What about the relative viability (NCI-H1734; first compound 4 µM) of the same compound?
Its relative viability is 0.551.

And the relative viability (RERF-LC-KJ; first compound 0.04 µM)?
The relative viability was 0.917.

And the relative viability (RERF-LC-KJ; first compound 0.1265 µM)?
The relative viability was 0.984.

And the relative viability (RERF-LC-KJ; first compound 0.4 µM)?
Its relative viability is 1.01.

And the relative viability (RERF-LC-KJ; first compound 4 µM)?
The relative viability was 0.323.

What about the relative viability (NCI-H3122; first compound 0.04 µM) of the same compound?
The relative viability was 0.607.

What about the relative viability (NCI-H3122; first compound 0.1265 µM) of the same compound?
Its relative viability is 0.591.

What about the relative viability (NCI-H3122; first compound 0.4 µM) of the same compound?
Its relative viability is 0.645.

And the relative viability (NCI-H3122; first compound 4 µM)?
Its relative viability is 0.518.

And the relative viability (LOU-NH91; first compound 0.04 µM)?
The relative viability was 0.938.

And the relative viability (LOU-NH91; first compound 0.1265 µM)?
Its relative viability is 0.964.

What about the relative viability (LOU-NH91; first compound 0.4 µM) of the same compound?
The relative viability was 0.907.

What about the relative viability (LOU-NH91; first compound 4 µM) of the same compound?
The relative viability was 0.721.

And the relative viability (UMC-11; first compound 0.04 µM)?
Its relative viability is 0.32.

What about the relative viability (UMC-11; first compound 0.1265 µM) of the same compound?
The relative viability was 0.351.

And the relative viability (UMC-11; first compound 0.4 µM)?
Its relative viability is 0.86.

What about the relative viability (UMC-11; first compound 4 µM) of the same compound?
Its relative viability is 0.272.

What about the relative viability (NCI-H460; first compound 0.04 µM) of the same compound?
The relative viability was 0.506.

What about the relative viability (NCI-H460; first compound 0.1265 µM) of the same compound?
The relative viability was 0.444.

What about the relative viability (NCI-H460; first compound 0.4 µM) of the same compound?
The relative viability was 0.502.

And the relative viability (NCI-H460; first compound 4 µM)?
The relative viability was 0.112.

What about the relative viability (NCI-H1395; first compound 0.1265 µM) of the same compound?
The relative viability was 0.482.

And the relative viability (NCI-H1395; first compound 0.4 µM)?
The relative viability was 0.506.

What about the relative viability (NCI-H1395; first compound 4 µM) of the same compound?
Its relative viability is 0.458.

And the relative viability (NCI-H1755; first compound 0.04 µM)?
The relative viability was 0.845.

And the relative viability (NCI-H1755; first compound 0.1265 µM)?
The relative viability was 0.918.

What about the relative viability (NCI-H1755; first compound 0.4 µM) of the same compound?
The relative viability was 0.833.

What about the relative viability (NCI-H1755; first compound 4 µM) of the same compound?
Its relative viability is 0.958.

What about the relative viability (NCI-H2170; first compound 0.04 µM) of the same compound?
Its relative viability is 0.648.

And the relative viability (NCI-H2170; first compound 0.1265 µM)?
Its relative viability is 0.609.

And the relative viability (NCI-H2170; first compound 0.4 µM)?
Its relative viability is 0.578.

What about the relative viability (NCI-H2170; first compound 4 µM) of the same compound?
The relative viability was 0.523.

And the relative viability (NCI-H2228; first compound 0.04 µM)?
The relative viability was 0.781.

And the relative viability (NCI-H2228; first compound 0.1265 µM)?
The relative viability was 0.505.

And the relative viability (NCI-H2228; first compound 0.4 µM)?
The relative viability was 0.571.

And the relative viability (NCI-H2228; first compound 4 µM)?
The relative viability was 0.174.

And the relative viability (NCI-H1651; first compound 0.04 µM)?
The relative viability was 0.173.

And the relative viability (NCI-H1651; first compound 0.1265 µM)?
Its relative viability is 0.167.

And the relative viability (NCI-H1651; first compound 0.4 µM)?
The relative viability was 0.178.

And the relative viability (NCI-H1651; first compound 4 µM)?
The relative viability was 0.139.

Source: the supplement of paper PMC10307832
